The results in this text go back to patent US5834494A, “Pyridylcarbamoyl Indolines” (SmithKline Beecham p.l.c., priority 1993, dated 1998).

A short description of the assay: Geller Seifter Procedure. To be noted: dose range 0.5-10 mg/kg p.o.; procedure of WO 94/04533. Type of assay: in vivo. How it is done:
The compound of example 2 was tested following the procedure outlined in WO 94/04533.

On to `Cc1cc2c(cc1Cl)N(C(=O)Nc1cccnc1)CC2` [Example 2, 6-Chloro-5-methyl-1-(3-pyridycarbamoyl)indoline], for which the punished responding entry is “significant increase in punished responding”.
